Reference: ChEMBL document CHEMBL1132859, “Role of the hydrophobic moiety of tumor promoters. Synthesis and activity of 2-alkylated benzolactams” (Bioorg Med Chem Lett, 2000)

What was measured:
[1] = biological target: Protein kinase C delta type (Homo sapiens, UniProt Q05655); test: Binding affinity for human recombinant protein kinase C delta
HL-60 = test: Compound was evaluated for its effective dose against HL-60 cells; type: functional; details: Homo sapiens, read-out: ED50 (the source's name)

Protein kinase C delta type, sequence (Q05655 whole entry): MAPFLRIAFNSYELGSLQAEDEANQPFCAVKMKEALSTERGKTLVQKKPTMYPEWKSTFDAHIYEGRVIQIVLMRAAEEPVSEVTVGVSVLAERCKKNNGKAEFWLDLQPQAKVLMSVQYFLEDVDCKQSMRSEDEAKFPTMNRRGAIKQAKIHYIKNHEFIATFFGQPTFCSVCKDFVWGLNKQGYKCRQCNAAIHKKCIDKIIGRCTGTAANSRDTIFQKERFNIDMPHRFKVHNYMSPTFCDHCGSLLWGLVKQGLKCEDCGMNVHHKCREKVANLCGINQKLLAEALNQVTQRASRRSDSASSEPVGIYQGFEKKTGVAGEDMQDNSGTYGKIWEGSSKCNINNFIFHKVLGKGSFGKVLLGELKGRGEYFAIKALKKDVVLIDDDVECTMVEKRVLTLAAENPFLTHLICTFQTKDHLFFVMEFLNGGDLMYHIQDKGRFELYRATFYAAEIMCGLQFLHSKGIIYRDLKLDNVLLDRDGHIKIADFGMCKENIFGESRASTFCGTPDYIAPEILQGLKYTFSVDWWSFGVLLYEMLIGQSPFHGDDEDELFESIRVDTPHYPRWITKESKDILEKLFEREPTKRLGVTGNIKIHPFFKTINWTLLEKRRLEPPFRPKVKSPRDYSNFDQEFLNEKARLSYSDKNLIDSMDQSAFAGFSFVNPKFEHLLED

Row | SMILES | Ki [1] | EC50 (HL-60)
1 | CCCCCCCCCC[C@H]1C(=O)N[C@H](CO)Cc2ccccc2N1C | 0.8 nM | 
2 | CCCCCCCCCCCC[C@H]1C(=O)N[C@H](CO)Cc2ccccc2N1C | 0.8 nM | 
3 | CCCCCCCCCCCCCC[C@H]1C(=O)N[C@H](CO)Cc2ccccc2N1C | 0.8 nM | 
4 | CCCCCCCCCCCCCCCCCCCC[C@H]1C(=O)N[C@H](CO)Cc2ccccc2N1C | > 1000 nM | 70 nM
